Earlier results as cited in US4431807A, “4-Methyl-5-(unsubstituted and substituted phenoxy)-6-methoxy-8-(aminoalkylamino)quinolines” (priority 1981, dated 1984).
Read-outs that look alike come from different tables or passages of the source.

Legend:
Plasmodium berghei = conditions: cited from earlier work; for Δ MST / Cures: 5 mice, Table I
Plasmodium cynomolgi = conditions: prior art compounds; cited from earlier work

COc1cc(NC(C)CCCN)c2ncccc2c1Oc1ccc(F)cc1 (stereo not shown) [5-(4-Fluorophenoxy)Primaquine, 5-(4-fluorophenoxy)primaquine]
Δ MST (Plasmodium berghei; 80 mg/kg): 7.0 days | Δ MST (Plasmodium berghei; 160 mg/kg): 9 days | Cures (Plasmodium berghei; 320 mg/kg): 5C | Cures (Plasmodium berghei; 640 mg/kg): 5C | Suppressive activity (Plasmodium berghei; 320 and 640 mg/kg): active and non-toxic | Suppressive activity relative to mefloquine (Plasmodium berghei; prior art compound): distinctly inferior | Radical curative activity relative to primaquine (Plasmodium cynomolgi): no more active than primaquine
